# Source: PMC8162731 (ACS chemical biology, 2020)
# Molecular target: SnDHAD (Synechocystis sp. PCC 6803, UniProt P74689)
# Assay: DHAD activity inhibition assay
# Type: biochemical
# Conditions: read-out: % inhibition at 0.5 mM
# Chain of SnDHAD (P74689 whole entry): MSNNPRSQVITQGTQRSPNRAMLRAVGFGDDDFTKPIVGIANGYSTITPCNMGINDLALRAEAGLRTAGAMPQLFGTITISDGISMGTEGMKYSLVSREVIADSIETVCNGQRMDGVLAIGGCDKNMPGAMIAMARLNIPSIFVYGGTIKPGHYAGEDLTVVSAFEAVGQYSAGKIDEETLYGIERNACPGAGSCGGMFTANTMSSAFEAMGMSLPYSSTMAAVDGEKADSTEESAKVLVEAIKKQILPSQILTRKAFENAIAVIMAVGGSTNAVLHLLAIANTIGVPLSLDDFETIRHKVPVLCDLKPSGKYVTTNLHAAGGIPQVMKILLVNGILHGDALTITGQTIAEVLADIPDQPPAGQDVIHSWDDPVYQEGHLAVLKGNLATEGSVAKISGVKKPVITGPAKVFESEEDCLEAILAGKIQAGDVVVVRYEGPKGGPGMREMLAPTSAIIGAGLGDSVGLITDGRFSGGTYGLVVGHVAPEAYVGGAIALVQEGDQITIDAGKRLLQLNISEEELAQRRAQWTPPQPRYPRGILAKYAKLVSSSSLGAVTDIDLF
compound,measurement,value
O=C(O)C(O)C(=O)O [Tartronic acid],inhibition at 500 µM,~35%
